Data on seven compounds can be found in ChEMBL document CHEMBL3997854, “Discovery of Orally Efficacious Tetrahydrobenzimidazoles as TGR5 Agonists for Type 2 Diabetes” (ACS Med Chem Lett, 2017).

SMILES strings stand for the structures.

Format in all cases: ADME, organism-based
A short description of series [1]: Plasma concentration in C57BL/6J mouse at 30 mg/kg, po measured at 2 hrs post dose by LC-MS/MS analysis.
The nature of series [2]: Clearance in overnight fasted C57BL/6J mouse at 5 mg/kg, iv by LC-MS/MS analysis. To be noted: in vivo.
The nature of series [3]: Bioavailability in overnight fasted C57BL/6J mouse at 5 mg/kg, iv by LC-MS/MS analysis. As to conditions: in vivo.
Series [4] in a line: AUClast in overnight fasted C57BL/6J mouse at 20 mg/kg, po administered via gavage after 24 hrs by LC-MS/MS analysis. Also on record: dose 20 mg/kg, time < 24 hr, route oral. As to conditions: in vivo.
Series [5] can be described thus: Volume of distribution at steady state in overnight fasted C57BL/6J mouse at 5 mg/kg, iv by LC-MS/MS analysis. To be noted: in vivo, read-out: Vdss.
The nature of series [6]: Cmax in overnight fasted C57BL/6J mouse at 20 mg/kg, po administered via gavage by LC-MS/MS analysis. Also on record: dose 20 mg/kg, route oral. To be noted: in vivo.
Series [7] in a line: Half life in overnight fasted C57BL/6J mouse at 20 mg/kg, po administered via gavage by LC-MS/MS analysis. As to conditions: in vivo.

Consider `COc1cc(C2(C)CCCc3nc(SCc4c(F)ccc(OCCOCCOCCN(C)C)c4F)n(-c4ccc(F)cc4)c32)ccc1Cl` (stereo not given), for which the concentration at 2 h in series [1] came out at 760 nM.

As a reminder, the clearance is the rate of elimination divided by the concentration. One may read the bioavailability as dose-corrected exposure relative to a reference, in per cent. A low value points to little systemic uptake. As usually defined, the AUC(0-t) is the area under the concentration-time curve up to a stated or last time point. A word on the Cmax: it is the maximum level reached in the sampled fluid or tissue. In turn, `COc1cc(C2(C)CCCc3nc(SCc4ncccn4)n(-c4ccc(F)cc4)c32)ccc1F` (stereo not given) came in with a clearance in series [2] of 45.3 mL/min/kg. The compound also returned a bioavailability in series [3] of 10.8%. In series [4], this compound yielded an AUC(0-t) at 24 h of 785 ng·h/mL. Besides, in series [5], the Vd amounted to 0.856 L/kg. The Cmax in series [6] stood at 913 ng/mL. The compound also showed a concentration at 2 h in series [1] of 280 nM.

Usually half-life stands for the time needed for the level to fall by half in the phase considered. Higher therefore signals slow loss. In series [2], `COc1ccc(C2(C)CCCc3nc(SCc4c(F)cc(OCCOCCOCCN(C)C)cc4F)n(-c4ccc(F)cc4)c32)cc1OC` (stereo not given) had a clearance of 9.68 mL/min/kg. Further, in series [7], the half-life was 2.1 h. This compound also displayed a bioavailability in series [3] of 27.5%. The compound further came in with an AUC(0-t) at 24 h in series [4] of 9350 ng·h/mL. Moreover, the Vd in series [5] came out at 0.947 L/kg. Moreover, the Cmax in series [6] turned out to be 2890 ng/mL. The compound also had a concentration at 2 h in series [1] of 2210 nM.

With `COc1ccc(C2(C)CCCc3nc(SCc4ncccn4)n(-c4ccc(F)cc4)c32)cc1OC` (stereo not given), in series [1], the concentration at 2 h came to 100 nM.

In series [2], `COc1cc(C2(C)CCCc3nc(SCc4c(F)cc(OCCOCCOCCN(C)C)cc4F)n(-c4ccc(F)cc4)c32)ccc1Cl` (stereo not given) came in with a clearance of 18.1 mL/min/kg. The compound further gave a half-life in series [7] of 1.33 h. Further, the bioavailability in series [3] stood at 13.9%. This compound displayed an AUC(0-t) at 24 h in series [4] of 2540 ng·h/mL. Moreover, in series [5], the Vd was 1.63 L/kg. This compound registered a Cmax in series [6] of 918 ng/mL. In series [1], this compound returned a concentration at 2 h of 1610 nM.

Take `COc1cc(C2(C)CCCc3nc(SCc4c(F)cc(OCCOCCOCCN(C)C)cc4F)n(-c4ccc(F)cc4)c32)ccc1F` (stereo not given): the clearance in series [2] stood at 10.2 mL/min/kg. The compound also had a half-life in series [7] of 2 h. In series [3], this compound displayed a bioavailability of 22.1%. In series [4], this compound displayed an AUC(0-t) at 24 h of 7160 ng·h/mL. Also, the Vd in series [5] was determined as 0.818 L/kg. For the same compound, the Cmax in series [6] was determined as 2410 ng/mL. Besides, in series [1], the concentration at 2 h came to 2110 nM.

`COc1cc(C2(C)CCCc3nc(SCc4ncccn4)n(-c4ccc(F)cc4)c32)ccc1Cl` (stereo not given) registered a clearance in series [2] of 58.4 mL/min/kg. The compound also yielded a bioavailability in series [3] of 9.44%. For the same compound, the AUC(0-t) at 24 h in series [4] is 527 ng·h/mL. Besides, in series [5], the Vd amounted to 1.43 L/kg. In series [6], the highest level (Cmax) was 507 ng/mL. Besides, the concentration at 2 h in series [1] came to 200 nM.
